This note sets out measurements from patent US12023308B2, “Agents for reversing toxic proteinopathies” (THE BROAD INSTITUTE, INC., priority 2019, dated 2024).

The target in one data set is T1, TMED9 (Homo sapiens, UniProt Q9BVK6).
T1 construct: TMED9 abundance in P cells at escalating temperatures (as indicated) with or without treatment with BRD-4780; endogenous in cells; host or cells: P cells (intact cells treated, then heated and lysed)
T1 sequence (Q9BVK6 38-235): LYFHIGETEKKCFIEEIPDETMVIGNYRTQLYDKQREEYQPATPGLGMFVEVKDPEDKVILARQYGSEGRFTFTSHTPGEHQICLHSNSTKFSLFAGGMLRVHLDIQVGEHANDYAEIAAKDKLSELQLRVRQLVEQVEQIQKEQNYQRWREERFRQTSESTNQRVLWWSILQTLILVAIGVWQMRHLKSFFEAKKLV
In words: Cellular thermal shift assay (CETSA) for TMED9 in P cells. The following applies: 5 μM, 1 hour. Format: binding. As to the method:
CETSAs were performed as previously described (Jafari et al., 2014; Reinhard et al., 2015). In brief, P cells were treated in the presence or absence of BRD-4780 for 1 hr, harvested (trypsinized), washed in PBS, resuspended in PBS (containing protease inhibitors) and distributed in 0.2 ml PCR tubes (100 μl; 600,000 cells). Cells were incubated at their designated temperatures for 3 min, then at 25° C. for 3 min and lysed by the addition of 1% NP-40. Immediately thereafter, samples were snap frozen and thawed using thermal cycler set at 25° C. Samples were spun at 20′000×g for 20 min (4° C.) to remove precipitated protein and the supernatant was analyzed by Western blot to examine the TMED9/Nischarin thermal stability.

For data set [1], the system named is N cells expressing P23H mutant rhodopsin. In words: Cell death (DRAQ7) in N cells expressing P23H mutant rhodopsin. It is filed as cell-based, human. The following applies: 5 μM, 72 hours. How it is done: To study apoptosis and cell death in N and P cells, 384 well Cell Carrier Ultra plates (6057308, Perkin Elmer), pre-coated with 0.25 mg/mL Synthemax II SC Substrate (3535, Corning) were used. For UPR branch activation experiments (FIGS. 2B, 9I, 9J and 9G) N and P cells were treated as described in the corresponding figure legends. CellEvent Caspase-3/7 Green Detection Reagent (C10423, Thermo Fisher Scientific®) and DRAQ7 (DR71000, Biostatus) were used at 1:5000 to monitor apoptosis and cell death respectively. Cells were imaged daily during 4 days to monitor viability and image analysis was performed as described below. For rescue experiments, P cells were plated on 96 well Cell Carrier Ultra microplates (6055302, Perkin Elmer) at 30,000 cells/well and cultured for 24 hr. […]
Caspase 3/7 activation and/or DRAQ7 staining were used to calculate the fraction of cells going through apoptosis and/or cell death, respectively. Single cells were first identified using the digital phase contrast channel and cell number was calculated. Fluorescence intensities were then measured and the threshold for Caspase 3/7 and DRAQ7 positive staining was determined. As an output, the fraction of live (neither caspase3/7 nor DRAQ7 signal detected), apoptotic (caspase3/7 positive) or dead cells (DRAQ7 positive) was calculated in each well at a particular time point.

The nature of the next data set: in vivo. The following applies: mouse. How it is done:
1) A pharmacokinetic study was performed by WuXi AppTec (Hong Kong) in fasted male 129S2/SvPasCrl mice (study #400565-20170331-MPK) to determine the oral bioavailability of BRD-4780. A single dose of BRD-4780 was administered at 3.0 mg/kg intravenously (i.v.) or 10.0 mg/kg orally (p.o) in a clear solution of 10% HP-β-CD in saline. Blood was collected serially from n=3 mice per dose group at eight time points post dose administration (0.25, 0.5, 1, 2, 4, 6, 8 and 24 hours) and plasma was obtained by centrifugation. Plasma drug concentration was determined by LC-MS/MS and reported as BRD-4780 ng/mL for plasma and ng/mg for kidney tissue, and plotted as the mean±standard deviation concentration (FIG. 11A). Standard pharmacokinetic parameters were calculated (FIG. 11B).

A short description of data set [2]: In vitro toxicity (cell number / viability). Conditions: any concentration tested. It is filed as cell-based.
Excerpt: Image acquisition and analysis was done as described elsewhere herein. Following image analysis, three parameters were selected, i) MUC1-fs and ii) MUC1-wt total cytoplasm intensity (averaged per cell) and iii) cell number as was detected by Hoechst 33342 stained nuclei. The levels of MUC1-fs and MUC1-wt found following DMSO and JQ1 were defined as 0 and −100% activity, respectively. […] Cell number was normalized to DMSO control. All compound concentrations showing >−20% reduction in cell number were masked out. Based on ±3 median absolute deviation value (FIG. 10A), hit calling criteria for the primary and secondary screens were chosen as MUC1-fs reduction >30% in two or more consecutive concentrations for both replicates. For the secondary screen, dose response curves were generated for each parameter using Genedata Screener (Genedata AG), and positive hits for the profiling screens were selected based on the compounds activity for reducing MUC1-fs and lack of toxicity. MUC1-fs specificity (according to MUC1 fs/wt ratio) was used as an additional positive criterion for selection.
Data set [3] in a line: Liver microsomes stability. It is filed as in vitro ADME. For orientation: Liver microsomes are a subcellular fraction often used to study metabolism.
Description: Stability was determined at 37° C. at 1 hour in liver microsomes. Each compound was prepared in duplicate at 1 μM in liver microsomes diluted 50/50 (v/v) with PBS pH 7.4. After addition of compounds to microsome mixture, the plate was sealed and vortexed and 100 µL of each sample was added to 3004 acetonitrile (with internal standard). Assay plate was incubated at 37° C. for 1 hr with a 350 rpm orbital shake, and following the hour 1004 of each sample was added to 300 μL acetonitrile (with internal standard). After quenching, samples were refrigerated for at least 1 hour. The samples were centrifuged (32×G) to pellet precipitated particulates and an aliquot of supernatant was diluted 50/50 (v/v) with water. The resulting solution was analyzed by UPLC-MS/MS with compounds detected by MRM detection on a triple quadrupole mass spectrometer. The compound peak areas in the 0 and 1 hour samples, -NADPH sample, and no compound control sample were compared to determine a percent remaining. Percent remaining in microsomes was calculated through the following equation: % remaining=[area (1 hr)/area (0 hr)]×100. (LC System, Waters Acquity I-Class; MS System, AB Sciex Triple Quad 4500; Column, Waters Acquity UPLC BEH C18, 1.7 μm, 2.1×50 mm; Mobile Phase A, Water with 0.1% formic acid; Mobile Phase B, Acetonitrile with 0.1% formic acid; Flow Rate, 0.90 mL/min; Column Temperature, 55° C.).

Each structure is given as a SMILES string. Entries after “also recorded” stand apart in the source; their conditions may differ.

For the compound `CC(C)[C@@H]1[C@H]2CC[C@H](C2)[C@H]1N` (racemic) [BRD-4780, 2-endo-amino-3-exo-isopropylbicyclo[2.2.1]heptane], the “TMED9 thermal stability (CETSA)” value at TMED9 was “shifted the TMED9 heat denaturation curve to significantly higher temperatures; also recorded: Higher abundance of TMED9 was noted at temperatures >47 °C”. Besides, in data set [1], the “viability of cells expressing P23H mutant” value is reported as “significantly improved”. For the same compound, the bioavailability in “in vivo” (male, 129S2/SvPasCrl) turned out to be 119%. For the same compound, the “oral bioavailability (in words)” value in the data set “in vivo” (po) is on record as “excellent oral bioavailability”. In data set [2], the in vitro toxicity result is “no overt toxicity at any concentration tested”. In addition, the microsomal stability entry in data set [3] is “good microsomal and plasma stability”.
